Test results reported in patent US10017535B2, “Amphiphilic compounds with neuroprotective properties” (USTAV ORGANICKE CHEMIE A BIOCHEMIE AV CR, v.v.i., priority 2014, dated 2018).

How the values were obtained:
[1] = target: T1, NR1-1a/NR2B NMDA receptor (Rattus norvegicus, UniProt P35439+Q00960); assay: Patch-clamp inhibition of glutamate-evoked currents at recombinant NMDA receptors in transfected HEK293 cells; assay type: cell-based; conditions: for IC50: calculated from relative steroid-induced inhibition, Hill's coefficient 1.2, read-out: IC50
T1 construct: expressed in transfected cells; host or cells: HEK293 cells (ATCC CRL1573)
Summary of the method: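 HEK293 cells co-transfected with rat NR1-1a/NR2B plus GFP were whole-cell patch-clamped 16-40 h post-transfection at −60 mV. Currents were evoked by 1 mmol·l^−1 glutamate with 10 μmol·l^−1 glycine in ECS pH 7.3, and steroid was co-applied in DMSO via fast perfusion. IC50 came from relative inhibition.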

[2] = test system: laboratory mice, strain CD-1; assay type: in vivo; conditions: intraperitoneally, 1 mg/kg; note: key: −: the desired effect was not observed; −/+: the desired effect was insufficient; +: the desired effect was observed
Description: (§1) In the Experimental Part 1 were used adults (30-35 g) male laboratory mice, strain CD-1 from Velaz facility, Czech Republic. Mice were housed in plastic boxes with a 12-hour light cycle (lights on at 7:00 pm). Mice had free access to food and water.
Thus there were prepared solutions of the four steroids for application rates of 0.1, 1, 10 and 100 mg/kg.
Laboratory mouse was chosen as a model organism for this experiment. The following experiments were performed as described in Front Behay. Neurosci.
The purpose of the primary behavioral testing was quickly determined the effect of compounds on CNS dependent functions and any signs of toxicity. A simplified modification Irwin test was selected with respect to the behavioral profile of NMDA receptor antagonists. Mice were tested individually. The study drug was administered intraperitoneally (Table 3) at a dose of 1 mg/kg. The control group consisted of individuals that received the CDX solution or saline.

[3] = test system: laboratory mice, strain CD-1; assay: Open field test (locomotor activity, sedative effect); for Open Field Test No Evidence of Hyperlocomotion: key: −: the desired effect was not observed; −/+: the desired effect was insufficient; +: the desired effect was observed; for Sedative Effect The Rapid Onset of Sedation at a Dose of 100 mg/kg: key: −: the desired effect was not observed; −/+: the desired effect was insufficient; +: the desired effect was observed; assay type: in vivo; conditions: for pathway in open field: dose 10 and 100 mg/kg, vs intact mice; for locomotor activity over time: higher dose of 10 resp. 100 mg/kg; for Open Field Test No Evidence of Hyperlocomotion / Sedative Effect The Rapid Onset of Sedation at a Dose of 100 mg/kg: intraperitoneally; for Open Field Test No Evidence of Hyperlocomotion: 0.1-100 mg/kg; for hyperlocomotion in open field: lower doses (below 10 mg/kg)
Description: as §1
Amphiphilic steroid compounds were dissolved in a solution of 3 g (2-hydroxypropyl)-β-cyclodextrin (CDX, Sigma-Aldrich) and 157 mg of citric acid ([…], Sigma-Aldrich) in 30 ml of distilled water, the pH was adjusted to 7.4 using sodium hydroxide (NaOH, Sigma-Aldrich). Thus there were prepared solutions of the four steroids for application rates of 0.1, 1, 10 and 100 mg/kg.
The efficacy of the studied compounds was compared to known NMDA antagonist is memantine (Sigma-Aldrich) at a dose of 5 mg/kg in rats, ketamine (Vétoquinol) at 10 mg/kg and dizocilpine (MK-801) (Sigma-Aldrich) at a dose of 0.3 mg/kg in mice. These three compounds were dissolved in saline (B Braun).
The substances at dose 0.1-100 mg/kg were administered before the test to mice intraperitoneally. As controls were used intact mice and mice that received CDX solution. Also, MK-801 (0.3 mg/kg) was used for comparison of effects of noncompetitive antagonist of NMDA receptors. From the experiment was evaluated overall track anywhere in the arena as an indicator of locomotor activity. In addition, it was judged a ten-minute segments track during each experiment. Based on these values, it was possible to determine the latency time of onset of action and changes in locomotor activity over time.
In this arrangement, the sedative effect of the studied compounds at the highest dose was evaluated. […] Over time was monitored locomotor activity and possible changes characterized by tremor, ataxia, restlessness, or sedation or general anesthesia (absence of response to stimuli, decreased muscle tone).

T1 sequence (Q00960 27-1482, other chains not shown): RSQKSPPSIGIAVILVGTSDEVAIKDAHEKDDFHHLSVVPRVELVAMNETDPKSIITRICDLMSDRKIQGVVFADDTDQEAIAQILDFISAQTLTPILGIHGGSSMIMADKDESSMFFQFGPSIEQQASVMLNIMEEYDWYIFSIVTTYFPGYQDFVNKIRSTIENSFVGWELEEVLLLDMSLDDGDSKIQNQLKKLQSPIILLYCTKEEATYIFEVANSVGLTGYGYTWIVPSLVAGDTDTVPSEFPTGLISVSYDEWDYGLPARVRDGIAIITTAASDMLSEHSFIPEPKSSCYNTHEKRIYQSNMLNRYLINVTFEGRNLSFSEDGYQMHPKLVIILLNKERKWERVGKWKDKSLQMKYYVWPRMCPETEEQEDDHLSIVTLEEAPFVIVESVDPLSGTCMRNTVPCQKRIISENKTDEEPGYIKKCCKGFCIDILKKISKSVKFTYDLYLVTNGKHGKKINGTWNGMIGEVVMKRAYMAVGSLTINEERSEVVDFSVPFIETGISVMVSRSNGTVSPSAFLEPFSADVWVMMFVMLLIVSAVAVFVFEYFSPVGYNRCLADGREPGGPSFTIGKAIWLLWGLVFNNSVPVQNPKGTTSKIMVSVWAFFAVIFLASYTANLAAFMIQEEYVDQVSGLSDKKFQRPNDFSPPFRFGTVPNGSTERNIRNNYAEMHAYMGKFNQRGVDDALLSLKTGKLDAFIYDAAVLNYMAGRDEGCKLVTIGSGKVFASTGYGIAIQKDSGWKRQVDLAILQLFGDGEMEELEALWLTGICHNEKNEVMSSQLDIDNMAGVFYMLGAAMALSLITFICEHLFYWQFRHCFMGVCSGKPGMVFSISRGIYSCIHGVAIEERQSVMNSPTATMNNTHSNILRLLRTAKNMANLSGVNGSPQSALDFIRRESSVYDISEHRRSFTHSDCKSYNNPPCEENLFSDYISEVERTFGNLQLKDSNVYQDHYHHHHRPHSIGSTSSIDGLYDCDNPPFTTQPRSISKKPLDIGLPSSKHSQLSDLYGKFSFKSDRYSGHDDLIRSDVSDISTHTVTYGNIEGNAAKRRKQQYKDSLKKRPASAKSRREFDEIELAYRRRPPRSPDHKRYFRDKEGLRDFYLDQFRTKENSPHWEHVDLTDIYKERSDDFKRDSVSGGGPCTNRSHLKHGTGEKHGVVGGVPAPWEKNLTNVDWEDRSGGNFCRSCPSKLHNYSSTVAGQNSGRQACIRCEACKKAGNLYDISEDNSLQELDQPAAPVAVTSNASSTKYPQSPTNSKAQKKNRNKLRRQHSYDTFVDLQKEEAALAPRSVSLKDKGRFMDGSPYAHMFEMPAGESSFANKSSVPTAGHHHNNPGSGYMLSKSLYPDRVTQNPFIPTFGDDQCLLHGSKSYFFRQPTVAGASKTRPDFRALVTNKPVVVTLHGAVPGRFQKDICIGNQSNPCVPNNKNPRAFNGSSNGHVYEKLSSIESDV

Pyridinium (3S,3aS,5bR,7aR,9R,11aS,11bS,13aR)-3,11a-dimethylhexadecahydro-1H,3H-naphtho[2′,1′:4,5]indeno[1,7a-c]furan-9-yl 9-sulfate [Compound 124]
IC50 [1]: 51 µM
Mean % change ± SD ([1]; steroid concentration 100 μmol·l^−1, 1 mmol·l^−1 glutamate, −60 mV): 69.1 ± 4.0%
Behavioural Test No Evidence of Toxicity [2]: +
pathway in open field [3]: significant reduction
locomotor activity over time [3]: significant decrease
Open Field Test No Evidence of Hyperlocomotion [3]: +
Sedative Effect The Rapid Onset of Sedation at a Dose of 100 mg/kg [3]: −
hyperlocomotion in open field [3]: not (unlike groups with dizocilpine) observed hyperlocomotion

C[C@@]12CCC[C@H]1[C@@H]1CC[C@@H]3C[C@H](OC(=O)[C@@H](N)CCC(=O)O)CC[C@]3(C)[C@H]1CC2 [Compound 130, (4S)-4-Amino-5-(((3R,5R,8S,9S,10S,13S,14S)-10,13-dimethylhexadecahydro-1H-cyclopenta[a]phenanthren-3-yl)oxy)-5-oxopentanoic acid]
inhibition at 1 µM ([1]; HEK293, read-out: Mean % change ± SD): 36.7 ± 7%
IC50 [1]: 1.6 µM
Behavioural Test No Evidence of Toxicity [2]: +
signs of sleepiness and overall sedation ([3]; 10 resp. 100 mg/kg, between the 20th and 40th minute): most pronounced
pathway in open field [3]: significant reduction
locomotor activity over time [3]: significant decrease
Open Field Test No Evidence of Hyperlocomotion [3]: +
Sedative Effect The Rapid Onset of Sedation at a Dose of 100 mg/kg [3]: +
hyperlocomotion in open field [3]: not (unlike groups with dizocilpine) observed hyperlocomotion

C[C@@]12CCCCC1[C@@H]1CC[C@@H]3C[C@H](OC(=O)[C@@H](N)CCC(=O)O)CC[C@]3(C)[C@H]1CC2 (stereo partly drawn) [Compound 106, (4S)-4-Amino-5-(((2R,4aS,4bS,6aS,10bS,12aR)-4a,6a-dimethyloctadekahydrochrysen-2-yl)oxy)-5-oxopentanoic acid]
inhibition at 10 µM ([1]; HEK293, steroid concentration 10 μmol·l^−1, 1 mmol·l^−1 glutamate, −60 mV, read-out: Mean % change ± SD): 48.7 ± 6.3%
IC50 [1]: 10.6 µM
Behavioural Test No Evidence of Toxicity [2]: +
pathway in open field [3]: significant reduction
locomotor activity over time [3]: significant decrease
Sedative Effect The Rapid Onset of Sedation at a Dose of 100 mg/kg [3]: −
